Experimental data as given in US7056945B1, “Selective inhibition of neuronal nitric oxide synthase” (priority 2002, dated 2006).

How the values were obtained:
all three NOS isoforms = conditions: similar for all three NOS isoforms; cited from earlier work
NOS = conditions: cited from earlier work
N368D eNOS mutant = N368D eNOS mutant (Bos taurus, UniProt P29473, N368D); assay: Ki for inhibition of N368D eNOS mutant; type: biochemical; conditions: Asn368 replaced with Asp in eNOS (N368D eNOS mutant)
Excerpt: (§1) We next tested this hypothesis by producing D597N nNOS and N368D eNOS mutant proteins.

wild type nNOS = wild type nNOS (Rattus norvegicus, UniProt P29476); assay: Ki for inhibition of wild type nNOS; type: biochemical
Excerpt: as §1

D597N nNOS mutant = target: T1, D597N nNOS mutant (Rattus norvegicus, UniProt P29476, D597N); assay: Ki for inhibition of D597N nNOS mutant; type: biochemical
T1 construct: made in house
Excerpt: as §1

## N=C(N)NCCC[C@H](N)C(=O)O [L-arginine]
All three NOS isoforms
  Km: low μM range

## N=C(NCCC[C@H](N)C(=O)O)N[N+](=O)[O-] [L-NNA, L-N^ω-nitroarginine]
NOS; L-NNA bound in the active site of eNOS (FIG. 1C legend)
  potency: low nM
NOS
  selectivity between NOS isoforms: poor selectivity

## NC(=O)[C@@H]1C[C@@H](N)CN1C(=O)[C@@H](N)CCC/N=C(\N)N[N+](=O)[O-] [DIP3, L-N^□-nitroarginine-(4R)-amino-L-proline amide]
N368D eNOS mutant
  Ki: 5.1 µM
Wild type nNOS
  Ki: 0.097 µM
D597N nNOS mutant
  Ki: 21 µM
